According to the NIST ThermoML archive (doi:10.1016/j.fluid.2013.06.038):
Numbers after ± are expanded uncertainties.

Details: Crystal; visual observation

CC=CC(=O)O [2-butenoic acid]
Normal melting temperature: 71.7 ± 1.1 °C
